Data from ChEMBL document CHEMBL1154845, “Neocomplanines A and B, a complanine family isolated from the marine fireworm” (J Nat Prod, 2010).
Active and inactive are the calls of the source. No cut-off for these calls is given here.

How the values were obtained:
Mus musculus = assay: Toxicity in sc dosed mouse assessed as foot-pad swelling over 5 hrs relative to control; assay type: organism-based; conditions: in vivo
[1] = Activation of PKC assessed as [gamma32P] incorporation at 2 mM after 15 mins by scintillation counting in presence of TPA
[2] = Activation of PKC assessed as [gamma32P] incorporation at greater than 0.5 mM after 15 mins by scintillation counting in presence of Ca2+
[3] = Activation of PKC assessed as [gamma32P] incorporation after 15 mins by scintillation counting in presence of TPA

| Activity [1] | Activity [2] | Activity [3] | Structure (SMILES) | Activity (Mus musculus) |
| --- | --- | --- | --- | --- |
| 10.9 pmol/min |  |  | CC/C=C\C/C=C\CC[C@@H](O)CNC(=O)CCC[N+](C)(C)C.[I-] [COMPLANINE] | Toxic |
|  | Active | Dose-dependent effect | CC(C)CCCCC(O)CNC(=O)CCC[N+](C)(C)C.[I-] (stereo not drawn) [NEOCOMPLANINE A] | Toxic |
|  | Active | Dose-dependent effect | CCCCCCCC(O)CNC(=O)CCC[N+](C)(C)C.[I-] (stereo not drawn) [NEOCOMPLANINE B] | Toxic |
